pEC50: −log10 of the molar value.
Key:
[1] = target: T1, CAD:CAD link between mediator and detectable conjugates (Homo sapiens, UniProt P62942, F37M); test: 3-part ActinPaint iGRIP system, interaction inhibitor dose-response (extraction procedure, plate reader); format: cell-based; conditions: CHO cells
T1 construct: expressed in transfected cells; host or cells: CHO
Excerpt: (§1) In this specific example, the 3 components of this second system were as follows:
(§2) 1) The anchor conjugate was made by fusing the F-actin binding domain of α-actinin (amino acids 1-133 of full protein sequence) to FRB(T2098L) [ps1570] (also referred to as FRB*). The cellular localization of the anchor could be detected with an antibody directed against the HA-tag included in the anchor fusion protein
(§3) 2) The mediator conjugate [ps1556] comprised wild-type FKBP protein fused to tandem repeats of FKBP(F36M), a mutant form of the protein that is known as FM and also CAD, and the coding plasmid for which was obtained from ARIAD Pharmaceuticals
(§4) 3) The detectable conjugate was made by fusing tandem repeats of CAD to EGFP [ps1547].
(§5) The three conjugates are depicted in diagrammatic form in FIG. 5a. CAD proteins spontaneously homodimerize, so mediator and detectable conjugates are normally linked together in the 3-part system (FIG. 5b). Therefore in this example, the protein interaction to be tested was the CAD:CAD link between mediator and detectable conjugates. […] The link between CAD proteins can be broken by ARIAD compound AP21998 (FIG. 5d). AP21998 was therefore used as the reference compound to validate the system. CHO cells were transfected and cultured essentially as described in Example 2, except the complement of plasmids required for the 2 and 3-part systems were transfected simultaneously rather than sequentially (as described in Example 2).
(§6) For compatibility with high throughput screening the cells were grown in microtitre plates for 16 hours from a seeding density of 1.0×10E5 cells per 400 μL, and an extraction procedure (described in Example 3) was used to remove mobile fluorescent components from cells, so that signal from immobile components could be measured. Plates were routinely stained with the nuclear dye Hoechst 22538 to enable correction of the immobile EGFP fluorescence signal from each well for cell density. […]
ActinPaint system. […] Plates were processed for extraction and nuclear staining then read in an Ascent plate reader. […]

[2] = target: T1, CAD:CAD link between mediator and detectable conjugates; test: 3-part Histone H2B iGRIP system, interaction inhibitor dose-response (extraction procedure, plate reader); format: cell-based; conditions: CHO cells
Excerpt: as §1
1) The anchor conjugate was made by fusing histone H2B to FRB(T2098L) [ps1569] (also referred to as FRB*). The cellular localization of the anchor could be detected with an antibody directed against the HA-tag included in the anchor fusion protein
as §3, §4
as §5, with “system.” for “system. CHO cells were transfected and cultured essentially as described in Example 2, except the complement of plasmids required for the 2 and 3-part systems were transfected simultaneously rather than sequentially (as described in Example 2).”
(§7) For compatibility with high throughput screening the cells were grown in microtitre plates for 16 hours from a seeding density of 1.0×10E5 cells per 400 μL, and an extraction procedure (described in Example 3) was used to remove mobile fluorescent components from cells, so that signal from immobile components locked in the nucleus could be measured. Plates were routinely stained with the nuclear dye Hoechst 22538 to enable correction of the immobile EGFP fluorescence signal from each well for cell density.
Dose-response of this CAD-interaction inhibitor in the 3-part Histone H2B system could be compared with the compound's efficacy and potency in other systems, to determine if similar sensitivity to the inhibitor (and other inhibitors) could be expected from the Histone H2B system. […] Plates were processed for extraction and nuclear staining then read in an Ascent plate reader. […]

[3] = test system: transcription factor-based detection system; conditions: data supplied by ARIAD Pharmaceuticals (RPD kit fact sheet); cited from earlier work
FRB(T2098L) and FKBP [4] = target: T2, FRB(T2098L) and FKBP (Homo sapiens, UniProt P42345+P62942, T2098L); test: 3-part ActinPaint iGRIP system, response to dimerizer; format: cell-based; conditions: CHO cells, 800 nM AP21967, 37° C.
T2 construct: expressed in transfected cells; host or cells: CHO
Excerpt: as §1, §2, §3, §4
The three conjugates are depicted in diagrammatic form in FIG. 5a. […]
as §6

FRB(T2098L) and FKBP [5] = target: T2, FRB(T2098L) and FKBP; test: 2-part ActinPaint system, response to dimerizer; format: cell-based; conditions: CHO cells
Method: (§8) The first system consists of 2 parts, an anchor conjugated to FRB(T2098L) [plasmid construct ps1570] and a detectable conjugate comprising FKBP fused to EGFP [ps1208]—these conjugates are depicted in FIG. 4a. […] The 2-part assay also acts as counter screen for any compounds that may directly or indirectly affect the location of the anchor protein itself within the cell.
For compatibility with high throughput screening the cells were grown in microtitre plates for 16 hours from a seeding density of 1.0×10E5 cells per 400 μL, and an extraction procedure (described in Example 3) was used to remove mobile fluorescent components from cells, so that signal from immobile components could be measured. Plates were routinely stained with the nuclear dye Hoechst 22538 to enable correction of the immobile EGFP fluorescence signal from each well for cell density.
Signals from immobile EGFP-labelled components and from the nuclear stain were read on an fluorescence plate reader (Fluoroskan Ascent CF, Labsystems, Finland) equipped with appropriate filter sets (EGFP: excitation 485 nm, emission 527 nm; Hoechst 22538: excitation 355 nm, emission 460 nm). […] For further experiments a dimerizer concentration of 800 nM for 2 hours was selected as giving adequate signal to background for extracted cells to be read on the Ascent plate reader.

FRB(T2098L) and FKBP [6] = target: T2, FRB(T2098L) and FKBP; test: 2-part Histone H2B system, response to dimerizer and competition by FK506; format: cell-based; conditions: CHO cells
Method: The 2-part assay also acts as counter screen for any compounds that may directly or indirectly affect the location of the anchor protein itself within the cell.
as §7
Signals from immobile EGFP-labelled components and from the nuclear stain were read on an fluorescence plate reader (Fluoroskan Ascent CF, Labsystems, Finland) equipped with appropriate filter sets (EGFP: excitation 485 nm, emission 527 nm; Hoechst 22538: excitation 355 nm, emission 460 nm).

FRB(T2098L) and FKBP [7] = target: T2, FRB(T2098L) and FKBP; test: 2-part Src(1-14) system, response to dimerizer; format: cell-based; conditions: CHO cells, 500 nM AP21967 for 60 minutes
Excerpt: as §8, with “ps1549]” for “ps1570]”, “[ps1208].” for “[ps1208]—these conjugates are depicted in FIG. 4a.”
CHO cells were transfected and cultured essentially as described in Example 2, except the complement of plasmids required for the 2 and 3-part systems were transfected simultaneously rather than sequentially (as described in Example 2).
For selection of co-expressing cells, 2-part system cells transfected with ps1549+ps1208 were cultured with 1 mg/ml zeocin+5 μg/ml blasticidin HCl. Cells of the 3-part system were cultured with 1 mg/ml zeocin+5 μg/ml blasticidin HCl+0.5 mg/ml G418 sulphate.
This redistribution response to dimerizer is robust and can be competed by FK506. In the 3-part system, the response can also be competed by compound AP21998.
Without dimerizer present in the medium, cells from both 2- and 3-part Src(1-14) systems display a more or less uniform distribution of GFP fluorescence, throughout cytoplasmic and nuclear compartments (FIGS. 23a and 24a). Dimerizer addition results in recruitment of the CAD-linked mediator+detectable complexes to the plasma membrane (FIGS. 23b and 24b). […]

FRB(T2098L) and FKBP [8] = target: T2, FRB(T2098L) and FKBP; test: 3-part Src(1-14) system, response to dimerizer; format: cell-based; conditions: CHO cells, 500 nM AP21967 for 120 minutes
Excerpt: as §1
1) The anchor conjugate was made by fusing c-Src(1-14) to FRB(T2098L) [ps1549]. The cellular localization of the anchor could be detected with an antibody directed against the HA-tag included in the anchor fusion protein
as §3, §4
as §5, with “CHO cells were transfected and cultured essentially as described in Example 2, except the complement of plasmids required for the 2 and 3-part systems were transfected simultaneously rather than sequentially (as described in Example 2).” left out
Without dimerizer present in the medium, cells from both 2- and 3-part Src(1-14) systems display a more or less uniform distribution of GFP fluorescence, throughout cytoplasmic and nuclear compartments (FIGS. 23a and 24a). […]

[9] = AP21998 greater than 5 μM plus 800 nM AP21967, 2 hours
[10] = 1000 nM AP21967, 2 hours, extraction procedure

EGFP-label remaining on the F-actin aggregates [1, 9] | pEC50 ([1]; co-treated with 800 nM AP21967, 2 hours, 37° C., read-out: EC50 for the prevention of recruitment / removal of EGFP-labelled components from the F-actin aggregates) | EGFP distribution in micrograph (FIG. 15c) ([2]; 800 nM AP21967 + 5 μM AP21998 for 2 hours) | EGFP-label remaining in the nuclei [2, 9] | pEC50 ([2]; co-treated with 800 nM AP21967, 2 hours, 37° C., read-out: EC50 for the prevention of recruitment / removal of EGFP-labelled components from the nuclear compartment) | time after which EGFP labelling of aggregates is clearly visible (FRB(T2098L) and FKBP [4]) [min] | time after which recruitment of fluorescence to F-actin aggregates is visible (FRB(T2098L) and FKBP [5]; 800 nM AP21967, 37° C.) [min] | increase of signal from immobile EGFP-labelled components relative to untreated cells (FRB(T2098L) and FKBP [5]; [10]) | time after which recruitment of fluorescence to the nuclei is visible (FRB(T2098L) and FKBP [6]; 800 nM AP21967, 37° C.) [min] | time to maximum response (recruitment to nuclei) (FRB(T2098L) and FKBP [6]; 800 nM AP21967, 37° C.) | increase of signal from immobile EGFP-labelled components relative to untreated cells (FRB(T2098L) and FKBP [6]; [10]) | EGFP distribution in micrograph (FIG. 23b) (FRB(T2098L) and FKBP [7]) | EGFP distribution in micrograph (FIG. 24b) (FRB(T2098L) and FKBP [8]) | SMILES | EGFP distribution in micrograph (FIG. 7c) ([1]; 5 μM AP21998 for 2 hours after 800 nM AP21967 for 60 minutes, continued presence of AP21967) | pEC50 [3]
no EGFP-label remained on the aggregates | ~5.96 | no nuclear accumulation | no EGFP-label remained in the nuclei | ~5.74 | – | – | – | – | – | – | – | – | CC[C@H](C(=O)N1CCCCC1C(=O)O[C@H](CCc1ccc(OC)c(OC)c1)c1cccc(OCC(=O)NCCCN(C)C)c1)c1cc(OC)c(OC)c(OC)c1 (stereo partly drawn) [AP21998] | The bright aggregates have dispersed into the cytoplasm | ~6.70
– | – | – | – | – | 15 | 2 | approximately 3 fold | 2 | approximately 10 minutes | approximately 2 fold | recruited to the plasma membrane | recruited to the plasma membrane | CO[C@H]1[C@@H](O)[C@H](C)C[C@H](C)/C=C/C=C/C=C(\C)[C@@H](c2c[nH]c3c(C)cccc23)C[C@@H]2CC[C@@H](C)[C@@](O)(O2)C(=O)C(=O)N2CCCC[C@H]2C(=O)O[C@H]([C@H](C)C[C@@H]2CC[C@@H](O)[C@H](OC)C2)C[C@H](O)[C@H](C)/C=C(\C)[C@H]1O [AP21967] | – | –

From US20030143634A1, “Method to detect interactions between cellular components in intact living cells, and to extract quantitative information relating to those interactions by fluorescence redistribution” (Biolmage A/S, priority 2001, published 2003)
